According to US20110038885A1, “CHEMOKINE ANALOGS” (priority 2007, published 2011):
Numbered stars: 1 amine (or outer) side, 2 acyl side, 3 side chain; on linkers, the order of the positions; unused ones are H or OH. Bridge positions count the residues as written; N and C are the ends. Square brackets hold non-standard residues; d marks the D form. Side chains are listed from the residue outwards. Peptide text beside a SMILES is read from it. * marks the point of attachment. γGlu = O=C(O)[C@H](CCC(=O)[*:2])N[*:1]; Diglycolyl = O=C(COCC(=O)[*:2])[*:1]; Glutaryl = O=C(CCCC(=O)[*:2])[*:1]; Suc = O=C(CCC(=O)[*:2])[*:1]; Decanoyl = CCCCCCCCCC(=O)*; Isobutyryl = CC(C)C(=O)*; Orn = NCCC[C@H](N)C(=O)O; Dab = NCC[C@H](N)C(=O)O; Dap = NC[C@H](N)C(=O)O; Butyryl = CCCC(=O)*; Bz = O=C(c1ccccc1)*; Ava = NCCCCC(=O)O; GABA = NCCCC(=O)O; βAla = NCCC(=O)O

Tested on: MCP-1
Assay: In vitro chemotaxis (trans-well migration) v MCP-1
Format: cell-based, human
In short: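 Human THP-1 monocytes (10^4-10^6) with agent at varying concentrations in upper trans-well chamber; IL-8 or MCP-1 in lower chamber at a migration-inducing concentration, 37° C for e.g. 4 hours. Migrated cells quantified by MTT (595 nm) against a THP-1 standard curve; cytotoxicity and non-chemokine chemoattractant controls run.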

Molecule	EC50 [nM]
CC[C@H](C)[C@@H]1NC(=O)[C@H](Cc2c[nH]c3ccccc23)NC(=O)[C@H](CCCCN)NC(=O)[C@@H](NC(C)=O)CCNC(=O)CC[C@@H](C(N)=O)NC(=O)[C@H](CCC(N)=O)NC1=O [Example 122, Ac-c(Dab-Lys-Trp-Ile-Gln-Glu)-NH2] (Ac-[Dab]KWIQE-NH2; lactam 1-6)	10
CC[C@H](C)[C@@H]1NC(=O)[C@H](Cc2c[nH]c3ccccc23)NC(=O)[C@H](CCCCN)NC(=O)[C@@H](NC(C)=O)CCCNC(=O)CC[C@@H](C(N)=O)NC(=O)[C@H](CCC(N)=O)NC1=O [Example 123, Ac-c(Orn-Lys-Trp-Ile-Gln-Glu)-NH2] (Ac-[Orn]KWIQE-NH2; lactam 1-6)	7
CC[C@H](C)[C@@H]1NC(=O)[C@H](Cc2c[nH]c3ccccc23)NC(=O)[C@H](CCCCN)NC(=O)[C@@H](NC(C)=O)CCCCNC(=O)CC[C@@H](C(N)=O)NC(=O)[C@H](CCC(N)=O)NC1=O [Example 124, Ac-c(Lys-Lys-Trp-Ile-Gln-Glu)-NH2] (Ac-KKWIQE-NH2; lactam 1-6)	8
CC[C@H](C)[C@@H]1NC(=O)[C@H](Cc2c[nH]c3ccccc23)NC(=O)[C@H](CCCCN)NC(=O)CCC(=O)NC[C@@H](C(N)=O)NC(=O)[C@H](CCC(N)=O)NC1=O [Example 125, c(Succinyl-Lys-Trp-Ile-Gln-Dap)-NH2] (KWIQ[Dap]-NH2; linker N-5 via Suc)	15
CC[C@H](C)[C@@H]1NC(=O)[C@H](Cc2c[nH]c3ccccc23)NC(=O)[C@H](CCCCN)NC(=O)CCC(=O)NCC[C@@H](C(N)=O)NC(=O)[C@H](CCC(N)=O)NC1=O [Example 126, c(Succinyl-Lys-Trp-Ile-Gln-Dab)-NH2] (KWIQ[Dab]-NH2; linker N-5 via Suc)	6
CC[C@H](C)[C@@H]1NC(=O)[C@H](Cc2c[nH]c3ccccc23)NC(=O)[C@H](CCCCN)NC(=O)CCCC(=O)NC[C@@H](C(N)=O)NC(=O)[C@H](CCC(N)=O)NC1=O [Example 127, c(Glutaryl-Lys-Trp-Ile-Gln-Dap)-NH2NH2] (KWIQ[Dap]-NH2; linker N-5 via Glutaryl)	7
CC[C@H](C)[C@@H]1NC(=O)[C@H](Cc2c[nH]c3ccccc23)NC(=O)[C@H](CCCCN)NC(=O)CCCC(=O)NCC[C@@H](C(N)=O)NC(=O)[C@H](CCC(N)=O)NC1=O [Example 128, c(Glutaryl-Lys-Trp-Ile-Gln-Dab)-NH2] (KWIQ[Dab]-NH2; linker N-5 via Glutaryl)	10
CC[C@H](C)[C@@H]1NC(=O)[C@H](Cc2c[nH]c3ccccc23)NC(=O)[C@H](CCCCN)NC(=O)CCCC(=O)NCCCC[C@@H](C(N)=O)NC(=O)[C@H](CCC(N)=O)NC1=O [Example 129, c(Glutaryl-Lys-Trp-Ile-Gln-Lys)-NH2] (KWIQK-NH2; linker N-5 via Glutaryl)	400
CC[C@H](C)[C@@H]1NC(=O)[C@H](Cc2c[nH]c3ccccc23)NC(=O)[C@H](CCCCN)NC(=O)COCC(=O)NC[C@@H](C(N)=O)NC(=O)[C@H](CCC(N)=O)NC1=O [Example 130, c(Diglycolyl-Lys-Trp-Ile-Gln-Dap)-NH2] (KWIQ[Dap]-NH2; linker N-5 via Diglycolyl)	50
CC[C@H](C)[C@@H]1NC(=O)[C@H](Cc2c[nH]c3ccccc23)NC(=O)[C@H](CCCCN)NC(=O)COCC(=O)NCC[C@@H](C(N)=O)NC(=O)[C@H](CCC(N)=O)NC1=O [Example 131, c(Diglycolyl-Lys-Trp-Ile-Gln-Dab)-NH2] (KWIQ[Dab]-NH2; linker N-5 via Diglycolyl)	30
CC[C@H](C)[C@@H]1NC(=O)[C@H](Cc2c[nH]c3ccccc23)NC(=O)[C@H](CCCCN)NC(=O)COCC(=O)NCCC[C@@H](C(N)=O)NC(=O)[C@H](CCC(N)=O)NC1=O [Example 132, c(Diglycolyl-Lys-Trp-Ile-Gln-Orn)-NH2] (KWIQ[Orn]-NH2; linker N-5 via Diglycolyl)	200
CCCCCCCCCC(=O)N[C@@H](CCC(=O)NCCCC[C@H](N)C(=O)N[C@H]1CSSC[C@@H](C(N)=O)NC(=O)[C@H](CCC(N)=O)NC(=O)[C@H]([C@@H](C)CC)NC(=O)[C@H](Cc2c[nH]c3ccccc23)NC(=O)[C@H](CCCCN)NC(=O)[C@H](CCC(N)=O)NC(=O)[C@H](CCCCN)NC(=O)[C@@H]2CCCN2C(=O)[C@H](CC(=O)O)NC(=O)[C@H](CC(C)C)NC1=O)C(=O)O [Example 173, Lys{Nε-[γ-Glu-(Nα-decanoyl)]}-c(Cys-Leu-Asp-Pro-Lys-Gln-Lys-Trp-Ile-Gln-Cys)-NH2] (H-K([γGlu-Decanoyl])CLDPKQKWIQC-NH2; disulfide 2-12)	> 1000
CC(C)(C)OC(=O)N1Cc2ccccc2C[C@H]1C(=O)NCCC(=O)NC1CCC(=O)NC1=O (stereo partly drawn) [Example 174, BOC-Tic-βAla-α-aminoglutaramide]	200
N[C@@H](Cc1c[nH]c2ccccc12)C(=O)NCC(=O)NC1CCC(=O)NC1=O (stereo partly drawn) [Example 180, Trp-Gly-α-aminoglutaramide]	25
CC(C)[C@H](NC(=O)[C@@H](N)Cc1c[nH]c2ccccc12)C(=O)NC1CCC(=O)NC1=O (stereo partly drawn) [Example 181, Trp-Val-α-aminoglutaramide]	20
CC[C@@H](C)[C@H]1NC(=O)[C@@H](CCC(N)=O)NC(=O)[C@H](NC(C)=O)CSSC[C@H](C(N)=O)NC(=O)[C@@H](CCCCN)NC(=O)[C@@H](Cc2c[nH]c3ccccc23)NC1=O [Example 190, Ac-c(D-Cys-D-Gln-D-Ile-D-Trp-D-Lys-D-Cys)-NH2] (Ac-[dC][dQ][dI][dW][dK][dC]-NH2; disulfide 1-6)	30

Now from value to molecule:

EC50 [nM]	Molecule
7	CC[C@@H](C)[C@H]1NC(=O)[C@@H](CCC(N)=O)NC(=O)[C@H](NC(=O)c2ccccc2)CSSC[C@H](C(N)=O)NC(=O)[C@@H](CCCCN)NC(=O)[C@@H](Cc2c[nH]c3ccccc23)NC1=O [Example 192, Benzoyl-c(D-Cys-D-Gln-D-Ile-D-Trp-D-Lys-D-Cys)-NH2] (Bz-[dC][dQ][dI][dW][dK][dC]-NH2; disulfide 1-6)
25	CC[C@@H](C)[C@H]1NC(=O)[C@@H](CCC(N)=O)NC(=O)[C@H](NC(=O)C(C)C)CSSC[C@H](C(N)=O)NC(=O)[C@@H](CCCCN)NC(=O)[C@@H](Cc2c[nH]c3ccccc23)NC1=O [Example 193, Isobutyryl-c(D-Cys-D-Gln-D-Ile-D-Trp-D-Lys-D-Cys)-NH2] (Isobutyryl-[dC][dQ][dI][dW][dK][dC]-NH2; disulfide 1-6)
45	CC[C@@H](C)[C@H]1NC(=O)[C@@H](CCC(N)=O)NC(=O)CCNC(=O)C[C@H](C(N)=O)NC(=O)[C@@H](CCCCN)NC(=O)[C@@H](Cc2c[nH]c3ccccc23)NC1=O [Example 195, c((βAla-D-Gln-D-Ile-D-Trp-D-Lys-D-Asp)-NH2] ([βAla][dQ][dI][dW][dK][dD]-NH2; lactam N-6)
50	CC[C@@H](C)[C@H]1NC(=O)[C@@H](CCC(N)=O)NC(=O)CCCNC(=O)C[C@H](C(N)=O)NC(=O)[C@@H](CCCCN)NC(=O)[C@@H](Cc2c[nH]c3ccccc23)NC1=O [Example 196, c(Gaba-D-Gln-D-Ile-D-Trp-D-Lys-D-Asp)-NH2] ([GABA][dQ][dI][dW][dK][dD]-NH2; lactam N-6)
20	CC[C@@H](C)[C@H]1NC(=O)[C@@H](CCC(N)=O)NC(=O)CCCCNC(=O)C[C@H](C(N)=O)NC(=O)[C@@H](CCCCN)NC(=O)[C@@H](Cc2c[nH]c3ccccc23)NC1=O [Example 197, c(Apn-D-Gln-D-Ile-D-Trp-D-Lys-D-Asp)-NH2] ([Ava][dQ][dI][dW][dK][dD]-NH2; lactam N-6)
20	CC[C@@H](C)[C@H]1NC(=O)[C@@H](CCC(N)=O)NC(=O)[C@H](NC(C)=O)CSSC[C@H](C(N)=O)NC(=O)[C@@H](CC(C)C)NC(=O)[C@@H](CC(=O)O)NC(=O)[C@H]2CCCN2C(=O)[C@@H](CCCCN)NC(=O)[C@@H](CCC(N)=O)NC(=O)[C@@H](CCCCN)NC(=O)[C@@H](Cc2c[nH]c3ccccc23)NC1=O [Example 198, Ac-c(D-Cys-D-Gln-D-Ile-D-Trp-D-Lys-D-Gln-D-Lys-D-Pro-D-Asp-D-Leu-D-Cys)-NH2] (Ac-[dC][dQ][dI][dW][dK][dQ][dK][dP][dD][dL][dC]-NH2; disulfide 1-11)
20	CC[C@@H](C)[C@H]1NC(=O)[C@@H](CCC(N)=O)NC(=O)CCNC(=O)C[C@H](C(N)=O)NC(=O)[C@@H](CC(C)C)NC(=O)[C@@H](CC(=O)O)NC(=O)[C@H]2CCCN2C(=O)[C@@H](CCCCN)NC(=O)[C@@H](CCC(N)=O)NC(=O)[C@@H](CCCCN)NC(=O)[C@@H](Cc2c[nH]c3ccccc23)NC1=O [Example 199, c(βAla-D-Gln-D-Ile-D-Trp-D-Lys-D-Gln-D-Lys-D-Pro-D-Asp-D-Leu-D-Asp)-NH2] ([βAla][dQ][dI][dW][dK][dQ][dK][dP][dD][dL][dD]-NH2; lactam N-11)
30	CCCC(=O)N[C@@H]1CSSC[C@H](C(N)=O)NC(=O)[C@@H](CCCCN)NC(=O)[C@@H](Cc2c[nH]c3ccccc23)NC(=O)[C@@H](C(C)C)NC(=O)[C@@H](CCC(N)=O)NC1=O [Example 200, Butanyl-c(D-Cys-D-Gln-D-Val-D-Trp-D-Lys-D-Cys)-NH2] (Butyryl-[dC][dQ][dV][dW][dK][dC]-NH2; disulfide 1-6)
10	CC[C@H](C)[C@H](NC(=O)[C@H](Cc1c[nH]c2ccccc12)NC(=O)[C@H](CCCCN)NC(=O)[C@H](CC(=O)O)NC(=O)C(C)C)C(=O)N[C@@H](CCC(N)=O)C(=O)N[C@@H](CCCCN)C(N)=O [Example 201, Isobutyryl-Asp-Lys-Trp-Ile-Gln-Lys-NH2] (Isobutyryl-DKWIQK-NH2)
8	CC[C@H](C)[C@H](NC(=O)[C@H](Cc1c[nH]c2ccccc12)NC(=O)[C@H](CCCCN)NC(=O)[C@H](CCCN)NC(=O)C(C)C)C(=O)N[C@@H](CCC(N)=O)C(=O)N[C@@H](CC(=O)O)C(N)=O [Example 202, Isobutyryl-Orn-Lys-Trp-Ile-Gln-Asp-NH2] (Isobutyryl-[Orn]KWIQD-NH2)
20	[aminoPeg10-oxaglutaryl]2-c(D-Cys-D-Gln-D-Ile-D-Trp-D-Lys-D-Gln-D-Lys-D-Pro-D-Asp-D-Leu-D-Cys)-NH2 [Example 186]
66	[aminoPeg10-oxaglutaryl]-c(D-Cys-D-Gln-D-Ile-D-Trp-D-Lys-D-Gln-D-Lys-D-Pro-D-Asp-D-Leu-D-Cys)-NH2 [Example 187]
